Values quoted from earlier work as cited in publication PMC8923172 (Antimicrobial Agents and Chemotherapy, 2022).

Test system: LPS-induced ALI
Settings: 2 mg/kg; cited from earlier work

## C[C@@H]1C[C@H]2[C@@H]3CCC4=CC(=O)C=C[C@]4(C)[C@@]3(F)[C@@H](O)C[C@]2(C)[C@@]1(O)C(=O)CO [dexamethasone]
  decrease in IFN-γ in bronchoalveolar lavage fluid: ~43%
  decrease in IL-6 in bronchoalveolar lavage fluid: approximately 26%
  decrease in IP-10 (CXCL10) in bronchoalveolar lavage fluid: ~50%
